Values of other authors in patent US20160051475A1, “Sustained Release Composition Comprising an Amine as Active Agent and a Salt of a Cyclic Organic Acid” (Upsher-Smith Laboratories, Inc., priority 2010, published 2016).

pKa: 9.7
Compound: CC(=O)Nc1ccc(O)cc1 [acetaminophen]
